These are literature values, as cited in patent US20190177430A1, “Methods of Treating Cancers With Chemotherapy With Reduced Toxicity” (The Wistar Institute of Anatomy and Biology, priority 2016, published 2019).

The conditions of this series: dosages of 250 mg/m^2.

For `COc1cccc2c1C(=O)c1c(O)c3c(c(O)c1C2=O)C[C@@](O)(C(=O)CO)C[C@@H]3O[C@H]1C[C@H](N)[C@H](O)[C@H](C)O1` [Doxorubicin, (7S,9S)-7-[(2R,4S,5S,6S)-4-amino-5-hydroxy-6-methyloxan-2-yl]oxy-6,9,11-trihydroxy-9-(2-hydroxyacetyl)-4-methoxy-8,10-dihydro-7H-tetracene-5,12-dione], the “Doxorubicin-induced cardiac dysfunction, share of treated patients” value was 9%.
